Our source for the Kd values is article PMC11595719, “Design of Ctenophore Ca^2+-Regulated Photoprotein Berovin Capable of Being Converted into Active Protein Under Physiological Conditions: Computational and Experimental Approaches” (Life, 2024).

Structures are written as SMILES.

Holding throughout (assay): Trp fluorescence quenching at […] nm
Common to all, as to assay type: binding

The target in assay [1] is T1, berovin (apo-berovin, BAwt) (Beroe abyssicola, UniProt H8ZZK1, K90A/N107S).
T1 construct: gene BA2; monomeric

Assay [2] deals with T2, berovin (apo-berovin, BAwt) (Beroe abyssicola, UniProt H8ZZK1).
T2 construct: gene BA2; monomeric
T2 sequence (H8ZZK1 1-208): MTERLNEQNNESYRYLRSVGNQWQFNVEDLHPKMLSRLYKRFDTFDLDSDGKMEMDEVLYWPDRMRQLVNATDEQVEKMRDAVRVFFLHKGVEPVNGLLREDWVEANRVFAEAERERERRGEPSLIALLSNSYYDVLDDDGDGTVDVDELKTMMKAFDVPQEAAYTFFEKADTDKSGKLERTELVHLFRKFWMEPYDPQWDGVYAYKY

Assay [3] addresses T3, berovin (apo-berovin) (Beroe abyssicola, UniProt H8ZZK1, K90M/N107S/W103F).
T3 construct: gene BA2; monomeric

In assay [4] the target is T4, berovin (apo-berovin, BAwt) (Beroe abyssicola, UniProt H8ZZK1, K90M).
T4 construct: gene BA2; monomeric
T4 sequence (H8ZZK1 entry or part of it K90M): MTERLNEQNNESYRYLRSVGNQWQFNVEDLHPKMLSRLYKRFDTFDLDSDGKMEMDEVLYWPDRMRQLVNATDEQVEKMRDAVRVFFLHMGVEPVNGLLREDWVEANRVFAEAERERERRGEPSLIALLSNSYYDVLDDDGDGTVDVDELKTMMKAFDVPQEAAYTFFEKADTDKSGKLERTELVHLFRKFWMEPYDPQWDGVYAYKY

T1 sequence (H8ZZK1 entry or part of it K90A/N107S): as the sequence (H8ZZK1 entry or part of it K90M) above, with M90A, N107S counted along it
T3 sequence (H8ZZK1 entry or part of it K90M/W103F/N107S): as the sequence (H8ZZK1 entry or part of it K90M) above, with W103F, N107S counted along it

Take `Oc1ccc(Cc2nc3c(Cc4ccccc4)nc(-c4ccc(O)cc4)cn3c2O)cc1` [coelenterazine]: the Kd (as a rule, the constant that tells how readily two partners part at equilibrium) in assay [1] was determined as 1.3 ± 0.15 µM; in assay [2], 4.72 ± 0.36 µM; in assay [3] it was 6.62 ± 0.54 µM; in assay [4], 2.61 ± 0.28 µM.
